# Data published in patent EP0211584A1, “Antihypertensive agents” (AMERICAN HOME PRODUCTS CORPORATION, priority 1985, dated 1987).
# Like-named read-outs stand apart in the source and are kept apart here.
# Key:
# [1] = system: arterial actin-myosin interactions; assay: Inhibition of superprecipitation (antagonism of actin-myosin interaction), Silver et al.; assay type: biochemical; conditions: six minute time-point
# Description: . The data reported herein was obtained at a six minute time-point rather than the 1.5, 5 and 12 minute time points indicated in the superprecipita- tion assay of the Silver et al paper.
# (§1) The following examples illustrate the preparation of a representative number of compounds of this invention. After each example, the Ca+2 antagonist activity of the compound is presented in terms of percent relaxation of aortic tissue (P.R.) at 10-^5M concentration. […] Inhibition of super- precipitation (Antag. of Actin-Myosin interaction) is expressed as percent inhibition (mean ± standard error of the mean for at least 3 separate experiments) at a compound concentration. In the same manner, inhibition of myosin light chain phosphorylation (Antag. of MLCP) is expressed as a percent inhibition at a compound concentration. Similarly, the antihypertensive activity is reported in terms of millimetres mercury (mmHg) systolic blood pressure (B.P.) reduction at the stated time post 50 mg/kg oral dosing or other dosing as indicated.
# [2] = system: isolated paced intact rabbit atria; assay: Cardiac depressant (negative inotropic) effect in isolated paced rabbit atria; conditions: Oryctolagus cuniculus; for IC25: read-out: IC25 (concentration which produces 25% inhibition of isometric force)
# Description: The potential for detrimental cardiac depressant (negative inotropic) effects of the compounds of this invention was assessed in isolated paced intact rabbit atria. […] Muscles (N=5-9/compound) were stimulated at a frequency of 3Hz with a WPI stimulator for a 60 minute equilibration period. Changes in isometric force were recorded as described for the aortic smooth muscle experiments, supra. […]
# [3] = system: rabbit aortic smooth muscle; assay: Ca+2 antagonism: relaxation of KCl-depolarized rabbit aortic smooth muscle strips; conditions: 20 min; for inhibition at 10 µM: Oryctolagus cuniculus, read-out: P.R. (percent relaxation of aortic tissue)
# Description: The composition of PSS was as follows (mM): NaCl 112,KCI 5, NaHCO3 25 KH2PO4 1, MgSO4 1.2, CaCl2 2.5, dextrose 10. The lower end of each tissue strip was attached to a fixed post and the upper end to a Statham UC-4 transducer. Changes in force development were recorded on a Beckman Dynograph Polygraphic Recorder.
# Following equilibration, the muscles were contracted in a depolarizing solution of PSS in which 100mM KCI was substituted for an equimolar concentration of NaCI. Following attainment of steady- state isometric force (20 min.), the test compound was added to afford a final concentration of 1 x 10^-5M. The inhibitory effect, expressed as percent relaxation, was determined from the mean of two experiments twenty minutes after the addition of the compound being tested.
# as §1
# [4] = biological target: Ca^+2-calmodulin dependent myosin light chain phosphorylation (Bos taurus, UniProt Q28824); assay: Inhibition of myosin light chain phosphorylation (MLCP), Silver et al.; assay type: biochemical; conditions: read-out: Antag. of MLCP (percent inhibition of myosin light chain phosphorylation)
# Description: The data reported herein was obtained at a six minute time-point rather than the 1.5, 5 and 12 minute time points indicated in the superprecipita- tion assay of the Silver et al paper.
# as §1
# [5] = system: spontaneously hypertensive rats; assay: Hypotensive effect: systolic blood pressure of spontaneously hypertensive rats; assay type: in vivo; conditions: mmHg per method
# Description: The hypotensive in vivo effect of the compounds of this invention was determined by measuring changes in the systolic blood pressure of spontaneously hypertensive rats with a Decker Caudal Plethysmograph. The compound being tested was administered to a group of 4 rats and their systolic pressure was determined prior to and at 1.5 and 4 hours after compound administration. Initial testing was done by oral administration of the compound. Results (mmHg) are expressed as decreases in systolic blood pressure.
# as §1
# [6] = rabbit atria paced at 3Hz, 30°C, cumulative dosing
# [7] = compound 1 x 10^-5M, 100mM KCl contraction, 20 minutes after addition, mean of two experiments
# [8] = dose 50mg/kg oral, at 1.5 hours, 50 mg/kg
# [9] = dose 50mg/kg oral, at 4 hours, 50 mg/kg
# [10] = dose 50mg/kg oral, at 1.5 hours
# [11] = dose 25mg/kg oral, at 1.5 hours
inhibition at 50 µM [4] [%],inhibition at 100 µM [4] [%],SMILES,Antag. of Actin-Myosin (percent inhibition of superprecipitation) ([1]; 50µM) [%],Antag. of Actin-Myosin (percent inhibition of superprecipitation) ([1]; 100µM) [%],"inhibition at 10 µM [3, 7] [%]",also measured
37,67,"CC1=C(C(=O)OCCOc2ccccc2)C(c2c(F)c(F)c(F)c(F)c2F)C2=C(CNCC2=O)N1 (single isomer, unassigned) [Example 4, (+ )-1,4,5,6,7,8-Hexahydro-2-methyl-5-oxo-4-(pentafluorophenyl)-1,7-naphthyridine-3-carboxylic acid 2-phenoxyethyl ester]",38,71,61,"IC25 [2, 6]: 800 nM"
28,63,"CO[C@H](COC(=O)C1=C(C)NC2=C(C(=O)CNC2)C1c1c(F)c(F)c(F)c(F)c1F)c1ccccc1 (single isomer, unassigned) [Example 8 Diastereomer A, 1,4,5,6,7,8-Hexahydro-2-methyl-5-oxo-4-(R or S-pentafluorophenyl)-1,7-naphthyridine-3-carboxylic acid(S)-2-methoxy-2-phenylethyl esters]",28,69,–,"inhibition at 10 µM ([3]; 10^-5M, Note: Muscles were pre-treated): 50%; B.P. (systolic blood pressure reduction) [5, 8]: -73 mm; B.P. (systolic blood pressure reduction) [5, 9]: -86 mm"
–,–,"CO[C@H](COC(=O)C1=C(C)NC2=C(C(=O)CNC2)C1c1c(F)c(F)c(F)c(F)c1F)c1ccccc1 (single isomer, unassigned) [Example 8 Diastereomer B, 1,4,5,6,7,8-Hexahydro-2-methyl-5-oxo-4-(R or S-pentafluorophenyl)-1,7-naphthyridine-3-carboxylic acid(S)-2-methoxy-2-phenylethyl esters]",30,64,–,"P.R. (percent relaxation of aortic tissue) ([3]; 10^-5M, Note: Muscles were pre-treated, 10 µM): 53%; B.P. (systolic blood pressure reduction) [5, 8]: -28 mm; B.P. (systolic blood pressure reduction) [5, 9]: -67 mm"
48 ± 2,70 ± 3,"COC(COC(=O)C1=C(C)NC2=C(C(=O)CNC2)C1c1c(F)c(F)c(F)c(F)c1F)c1ccccc1 (stereo not shown) [Example 5, 1,4,5,6,7,8-Hexahydro-2-methyl-5-oxo-4-(pentafluorophenyl)-1,7-naphthyridine-3-carboxylic acid 2-methoxy-2-phenylethyl ester]",50±5,75±4,71,"Antag. of Actin-Myosin (percent inhibition of superprecipitation) ([1]; 25µM): 20±5%; IC25 [2, 6]: 10000 nM; inhibition at 25 µM [4]: 21 ± 3%"
–,44,"COC(COC(=O)C1=C(C)NC2=C(C(=O)CNC2)C1c1c(F)cccc1Cl)c1ccccc1 (stereo not shown) [Example 9, 4-(2-Chloro-6-fluoroohenyl)-1,4,5,6,7,8-hexahydro-2-methyl-5-oxo-1,7-naphthyridine-3-carboxylic acid 2-methoxy-2-phenylethyl ester]",–,40,28,"B.P. (systolic blood pressure reduction) [5, 10]: -37 mm; B.P. (systolic blood pressure reduction) ([5]; dose 50mg/kg oral, at 4 hours): -14 mm"
–,48,"COC(COC(=O)C1=C(C)NC2=C(C(=O)CNC2)C1c1cccc(Cl)c1)c1ccccc1 (stereo not shown) [Example 11, 4-(3-Chloroahenyl)-1,4,5,6,7,8-hexahydro-2-methyl-5-oxo-1,7--naphthyridine-3-carboxylic acid. 2-methoxv-2-phenvlethvl ester]",–,53,31,"B.P. (systolic blood pressure reduction) [5, 10]: -29 mm"
–,28,"CC1=C(C(=O)OCCOc2ccccc2)C(c2c(F)ccc(F)c2F)C2=C(CNCC2=O)N1 (stereo not shown) [Example 16, 1,4,5,6,7,8-Hexahydro-2-methyl-5-oxo-4-(2,3,6-trifluorophenyl)-1,7-naphthyridine-3-carboxylic acid 2-phenoxyethyl ester]",–,34,63,"B.P. (systolic blood pressure reduction) [5, 11]: -37 mm"
–,62,"CC1=C(C(=O)OCC(C)(C)Oc2ccccc2)C(c2c(F)c(F)c(F)c(F)c2F)C2=C(CNCC2=O)N1 (stereo not shown) [Example 20, 1,4,5,6,7,8-Hexahydro-2-methyl-5-oxo-4-(pentafluorophenyl)-1,7-naphthyridine-3-carboxylic acid 2-methyl-2-phenoxypropyl ester]",–,67,51,"B.P. (systolic blood pressure reduction) [5, 11]: -64 mm"
73 ± 1.5,74 ± 2,"CC1=C(C(=O)OCCOc2cccc(Cl)c2Cl)C(c2c(F)c(F)c(F)c(F)c2F)C2=C(CNCC2=O)N1 (stereo not shown) [Example 22, 1,4,5,6,7,8-Hexahydro-2-methyl-5-oxo-4-(pentafluorophenyl)-1,7-naphthyridine-3-carboxylic acid 2-(2,3-dichlorphenoxy)ethyl ester]",75±4,78±1,61,"Antag. of Actin-Myosin (percent inhibition of superprecipitation) ([1]; 10µM): 30±3%; Antag. of Actin-Myosin (percent inhibition of superprecipitation) ([1]; 25µM): 54±3%; B.P. (systolic blood pressure reduction) [5, 11]: -37 mm; B.P. (systolic blood pressure reduction) ([5]; dose 25mg/kg oral, at 4 hours): -52 mm; inhibition at 10 µM ([4]; 10µM): 25%; inhibition at 25 µM [4]: 54 ± 2.5%"
18,56,"CC1=C(C(=O)OCCOc2ccccc2)C(c2c(F)ccc(C)c2Cl)C2=C(CNCC2=O)N1 (stereo not shown) [Example 23, 4-(2-chloro-6-fluoro-3-methylphenyl)-1,4,5,6,7,8-hexahydro-2-methyl-5-oxo-1,7-naphthyridine-3-carboxylic acid 2-phenoxyethyl ester]",23,62,67,"B.P. (systolic blood pressure reduction) [5, 11]: -22 mm; B.P. (systolic blood pressure reduction) ([5]; dose 25mg/kg oral, at 4 hours): -31 mm"
50 ± 2,68 ± 1,"CC1=C(C(=O)OCCOc2ccccc2)C(c2c(F)ccc(Cl)c2Cl)C2=C(CNCC2=O)N1 (stereo not shown) [Example 24, 4-(2,3-Dichloro-6-fluorophenyl)-1,4,5,6,7,8-hexahydro-2-methyl-5-oxo-1,7-naphthyridine-3-carboxylic acid 2-phenoxyethyl ester]",54±3,72±1,65,"Antag. of Actin-Myosin (percent inhibition of superprecipitation) ([1]; 25µM): 9±2%; IC25 [2, 6]: 10000 nM; inhibition at 25 µM [4]: 8 ± 2%"
–,–,"NCCCCCCNS(=O)(=O)c1cccc2c(Cl)cccc12 [Example W-7, reference compound]",–,–,–,inhibition at 10 µM ([2]; read-out: inhibition of isometric force): < 20%
–,–,"COc1ccc(CCN(C)CCCC(C#N)(c2ccc(OC)c(OC)c2)C(C)C)cc1OC (stereo not shown) [Verapamil, reference compound]",–,–,–,IC25 [2]: 60 nM
–,–,"COC(=O)C1=C(C)NC(C)=C(C(=O)OC)C1c1ccccc1[N+](=O)[O-] [nifedipine, reference compound]",–,–,–,IC25 [2]: 50 nM
–,–,"CCOC(=O)C1=C(C)NC(C)=C(C(=O)OC)C1c1cccc([N+](=O)[O-])c1 (stereo not shown) [nitrendipine, reference compound]",–,–,–,"IC25 [2, 6]: 350 nM"
